The target in experiment [1] is Dual specificity protein kinase CLK1 (Homo sapiens, UniProt P49759). In words: CLK1 kinase inhibitors, off-target check, dose response, selectivity assay for Dyrk1A inhibitor project, biochemical, cherry-picked samples (AID 588811).
In experiment [2] the target is T1, Sentrin-specific protease 6 (Homo sapiens, UniProt Q9GZR1).
T1 sequence (Q9GZR1 whole entry): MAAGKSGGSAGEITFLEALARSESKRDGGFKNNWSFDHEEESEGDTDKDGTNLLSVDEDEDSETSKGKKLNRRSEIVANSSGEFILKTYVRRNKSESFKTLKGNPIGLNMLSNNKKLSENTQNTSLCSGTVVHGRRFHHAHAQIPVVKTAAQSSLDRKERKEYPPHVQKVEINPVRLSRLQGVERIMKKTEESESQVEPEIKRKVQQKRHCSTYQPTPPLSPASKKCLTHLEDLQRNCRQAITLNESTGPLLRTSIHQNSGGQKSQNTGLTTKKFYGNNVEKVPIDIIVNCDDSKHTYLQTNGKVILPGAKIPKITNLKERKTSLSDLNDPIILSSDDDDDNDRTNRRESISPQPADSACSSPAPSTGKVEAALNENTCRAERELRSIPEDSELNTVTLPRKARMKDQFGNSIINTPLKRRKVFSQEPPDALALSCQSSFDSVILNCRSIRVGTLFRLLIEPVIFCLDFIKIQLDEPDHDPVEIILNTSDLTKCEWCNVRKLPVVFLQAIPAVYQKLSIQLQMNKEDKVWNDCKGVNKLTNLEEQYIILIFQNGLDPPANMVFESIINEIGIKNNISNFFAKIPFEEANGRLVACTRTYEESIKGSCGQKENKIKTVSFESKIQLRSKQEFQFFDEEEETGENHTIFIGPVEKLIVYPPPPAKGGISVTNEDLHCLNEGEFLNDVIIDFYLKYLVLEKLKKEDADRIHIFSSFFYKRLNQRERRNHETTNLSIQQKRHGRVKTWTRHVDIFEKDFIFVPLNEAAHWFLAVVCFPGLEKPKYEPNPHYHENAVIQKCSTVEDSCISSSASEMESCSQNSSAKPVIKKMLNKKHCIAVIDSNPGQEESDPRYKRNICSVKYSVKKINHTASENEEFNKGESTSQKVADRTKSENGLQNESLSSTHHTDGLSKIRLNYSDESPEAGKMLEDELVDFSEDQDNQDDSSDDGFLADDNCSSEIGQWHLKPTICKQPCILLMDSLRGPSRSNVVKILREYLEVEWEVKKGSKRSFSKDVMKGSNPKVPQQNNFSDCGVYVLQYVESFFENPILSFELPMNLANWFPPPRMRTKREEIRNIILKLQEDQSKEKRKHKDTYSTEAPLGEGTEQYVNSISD
Kind of experiment: SENP6 protease inhibitors, SAR follow-up, biochemical, luminescence, set 2 (AID 588598). Format: functional.

Experiment [3] has as its target T2, Sentrin-specific protease 7 (Homo sapiens, UniProt Q9BQF6).
T2 sequence (Q9BQF6 whole entry): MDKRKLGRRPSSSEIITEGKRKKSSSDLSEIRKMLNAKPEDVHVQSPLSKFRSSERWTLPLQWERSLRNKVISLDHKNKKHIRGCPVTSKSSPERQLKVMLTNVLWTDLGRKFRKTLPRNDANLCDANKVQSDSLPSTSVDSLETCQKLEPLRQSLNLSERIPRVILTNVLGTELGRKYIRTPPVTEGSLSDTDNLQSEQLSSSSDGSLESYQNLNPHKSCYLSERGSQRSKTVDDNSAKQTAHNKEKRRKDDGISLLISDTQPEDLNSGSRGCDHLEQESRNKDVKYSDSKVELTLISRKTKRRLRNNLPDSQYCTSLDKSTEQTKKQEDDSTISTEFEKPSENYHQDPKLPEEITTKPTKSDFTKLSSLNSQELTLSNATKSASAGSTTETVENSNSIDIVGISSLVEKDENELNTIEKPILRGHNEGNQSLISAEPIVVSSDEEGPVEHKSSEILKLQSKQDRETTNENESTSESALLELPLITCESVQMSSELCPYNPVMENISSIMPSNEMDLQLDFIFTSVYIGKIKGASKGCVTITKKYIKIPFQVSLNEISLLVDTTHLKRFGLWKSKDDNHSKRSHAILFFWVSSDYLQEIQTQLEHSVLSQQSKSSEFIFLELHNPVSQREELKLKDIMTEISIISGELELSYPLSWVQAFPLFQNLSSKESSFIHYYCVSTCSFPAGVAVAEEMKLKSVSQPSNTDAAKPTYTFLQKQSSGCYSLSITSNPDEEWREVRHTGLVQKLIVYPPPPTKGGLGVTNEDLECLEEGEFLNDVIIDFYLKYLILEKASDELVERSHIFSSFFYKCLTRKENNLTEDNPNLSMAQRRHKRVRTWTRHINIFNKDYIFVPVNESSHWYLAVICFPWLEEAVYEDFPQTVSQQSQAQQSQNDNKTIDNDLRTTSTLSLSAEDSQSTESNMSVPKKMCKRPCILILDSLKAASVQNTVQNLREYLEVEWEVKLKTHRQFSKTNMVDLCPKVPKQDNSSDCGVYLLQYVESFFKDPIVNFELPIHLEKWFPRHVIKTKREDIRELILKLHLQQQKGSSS
In words: SENP7 protease inhibitors, SAR follow-up, biochemical, luminescence, set 2 (AID 588600). It counts as functional.

A further experiment concerns the target T3, Caspase-3 (Homo sapiens, UniProt P42574).
T3 sequence (P42574 whole entry): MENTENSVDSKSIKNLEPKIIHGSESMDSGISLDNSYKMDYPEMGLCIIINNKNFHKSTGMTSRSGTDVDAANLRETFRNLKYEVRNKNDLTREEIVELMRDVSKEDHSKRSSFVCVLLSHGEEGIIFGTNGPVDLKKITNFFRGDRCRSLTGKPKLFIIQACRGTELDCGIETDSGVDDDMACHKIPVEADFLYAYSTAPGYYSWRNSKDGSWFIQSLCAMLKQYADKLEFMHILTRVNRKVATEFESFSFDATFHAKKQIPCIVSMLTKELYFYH
In words: caspase-3 inhibitors as off-family protease, SAR follow-up, selectivity assay for SENP protease inhibitor project, biochemical, luminescence, set 2 (AID 588599). Format: functional.

Experiment [4] addresses T4, Sentrin-specific protease 8 (Homo sapiens, UniProt Q96LD8).
T4 sequence (Q96LD8 whole entry): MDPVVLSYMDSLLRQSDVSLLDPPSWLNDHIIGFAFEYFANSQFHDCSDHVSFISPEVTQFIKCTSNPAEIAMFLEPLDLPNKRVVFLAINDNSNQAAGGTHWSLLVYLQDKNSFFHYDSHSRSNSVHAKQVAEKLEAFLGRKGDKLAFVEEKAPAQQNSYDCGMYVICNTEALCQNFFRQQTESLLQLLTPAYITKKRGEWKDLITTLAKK
Kind of experiment: SENP8 protease inhibitors, SAR follow-up, biochemical, luminescence, set 2 (AID 588601). Format: functional.

In experiment [5] the target is Glycogen synthase kinase-3 beta (Homo sapiens, UniProt P49841). In words: Inhibition of Human GSK-3 beta Activity Measured in Biochemical System Using Microfluidics - 2063-05_Inhibitor_Dose_DryPowder_Activity. [Related pubchem assays (depositor defined):AID2709].
Glycogen synthase kinase-3 beta, sequence (P49841 whole entry): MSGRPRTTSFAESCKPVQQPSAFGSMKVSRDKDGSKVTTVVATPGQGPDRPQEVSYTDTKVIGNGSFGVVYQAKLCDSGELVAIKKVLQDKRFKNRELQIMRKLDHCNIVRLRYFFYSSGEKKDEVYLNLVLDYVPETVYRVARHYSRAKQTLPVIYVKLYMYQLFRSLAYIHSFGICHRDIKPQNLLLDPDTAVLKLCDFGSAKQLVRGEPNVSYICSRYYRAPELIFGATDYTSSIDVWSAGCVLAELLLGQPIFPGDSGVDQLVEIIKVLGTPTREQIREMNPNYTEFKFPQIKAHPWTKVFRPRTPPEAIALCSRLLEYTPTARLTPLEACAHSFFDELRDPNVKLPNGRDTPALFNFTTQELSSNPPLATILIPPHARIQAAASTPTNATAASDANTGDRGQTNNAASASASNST
For experiment [6], the target named is Glycogen synthase kinase-3 alpha (Homo sapiens, UniProt P49840). In words: Inhibition of Human GSK-3 alpha Activity Measured in Biochemical System Using Microfluidics - 2063-06_Inhibitor_Dose_DryPowder_Activity. [Related pubchem assays (depositor defined):AID2709].
Glycogen synthase kinase-3 alpha, sequence (P49840 whole entry): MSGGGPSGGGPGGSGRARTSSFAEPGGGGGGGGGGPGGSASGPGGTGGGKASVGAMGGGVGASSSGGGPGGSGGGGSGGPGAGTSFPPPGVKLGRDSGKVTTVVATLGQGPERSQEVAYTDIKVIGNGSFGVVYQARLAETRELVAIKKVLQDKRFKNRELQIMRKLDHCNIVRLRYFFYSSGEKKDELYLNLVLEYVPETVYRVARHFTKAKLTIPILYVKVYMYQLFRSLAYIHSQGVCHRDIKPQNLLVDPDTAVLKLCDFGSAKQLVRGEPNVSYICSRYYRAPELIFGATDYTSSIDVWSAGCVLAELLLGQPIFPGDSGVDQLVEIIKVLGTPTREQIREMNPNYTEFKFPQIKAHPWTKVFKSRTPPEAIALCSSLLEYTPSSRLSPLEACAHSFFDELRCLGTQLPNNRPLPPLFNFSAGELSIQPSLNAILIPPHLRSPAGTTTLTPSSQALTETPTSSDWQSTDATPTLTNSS
Experiment [7] deals with Candida albicans. Kind of experiment: growth inhibition of azole-resistant C. albicans, dose response, CaCi-8 strain, Alamar Blue, dry powder, set 3 (AID 488905). It counts as functional, organism-based.
Experiment [8] relates to Candida albicans. In words: reversal of fluconazole resistance in C. albicans, dose response, CaCi-2 strain, Alamar Blue, dry powder, set 3 (AID 488907). Format: functional, organism-based.
Experiment [9] addresses DNA dC->dU-editing enzyme APOBEC-3A (Homo sapiens, UniProt P31941). Kind of experiment: APOBEC3A DNA deaminase inhibitors, dose response, biochemical (AID 504722). Format: functional.
Experiment [10] addresses T5, Apoptotic protease-activating factor 1 (Homo sapiens, UniProt O14727).
T5 sequence (O14727 whole entry): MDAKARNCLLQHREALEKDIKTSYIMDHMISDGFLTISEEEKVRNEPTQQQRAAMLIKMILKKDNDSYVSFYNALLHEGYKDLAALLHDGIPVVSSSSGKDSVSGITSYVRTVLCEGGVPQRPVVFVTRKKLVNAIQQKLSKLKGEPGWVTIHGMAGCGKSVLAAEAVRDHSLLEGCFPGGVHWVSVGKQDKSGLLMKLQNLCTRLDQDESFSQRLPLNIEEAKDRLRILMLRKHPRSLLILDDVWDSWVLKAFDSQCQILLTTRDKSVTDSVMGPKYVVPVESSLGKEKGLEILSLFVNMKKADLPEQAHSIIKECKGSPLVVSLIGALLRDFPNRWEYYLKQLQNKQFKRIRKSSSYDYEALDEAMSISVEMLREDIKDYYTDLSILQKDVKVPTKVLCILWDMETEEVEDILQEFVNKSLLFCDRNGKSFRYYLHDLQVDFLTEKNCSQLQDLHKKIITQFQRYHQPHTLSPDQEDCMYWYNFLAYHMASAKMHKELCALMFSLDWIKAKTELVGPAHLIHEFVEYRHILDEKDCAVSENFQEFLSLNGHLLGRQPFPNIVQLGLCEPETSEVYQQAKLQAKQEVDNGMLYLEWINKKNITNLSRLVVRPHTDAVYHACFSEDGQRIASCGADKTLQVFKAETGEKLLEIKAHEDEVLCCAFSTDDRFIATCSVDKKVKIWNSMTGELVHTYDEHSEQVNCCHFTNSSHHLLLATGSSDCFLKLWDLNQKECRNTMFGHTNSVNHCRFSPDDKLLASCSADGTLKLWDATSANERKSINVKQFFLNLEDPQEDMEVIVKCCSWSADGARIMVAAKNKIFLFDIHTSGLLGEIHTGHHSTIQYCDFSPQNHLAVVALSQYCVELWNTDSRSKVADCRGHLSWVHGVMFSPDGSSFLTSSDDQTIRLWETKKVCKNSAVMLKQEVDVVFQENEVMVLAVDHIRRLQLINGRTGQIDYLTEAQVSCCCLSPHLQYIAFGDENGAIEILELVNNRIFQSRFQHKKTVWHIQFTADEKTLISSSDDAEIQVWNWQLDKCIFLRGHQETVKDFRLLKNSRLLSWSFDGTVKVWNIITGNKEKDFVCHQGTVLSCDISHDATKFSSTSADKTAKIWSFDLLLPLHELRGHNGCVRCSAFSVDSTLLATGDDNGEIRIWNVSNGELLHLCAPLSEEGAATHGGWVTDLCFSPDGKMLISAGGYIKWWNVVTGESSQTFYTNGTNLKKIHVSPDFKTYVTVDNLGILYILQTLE
In words: activation of Apaf-1 mediated apoptosis – fluorescent, uHTS hits, dose response (AID 588554). Format: functional.

For experiment [11], the target named is DNA dC->dU-editing enzyme APOBEC-3G (Homo sapiens, UniProt Q9HC16). In words: Dose Response confirmation of small molecule APOBEC3G DNA Deaminase Inhibitors via a fluorescence-based single-stranded DNA deaminase assay. [Related pubchem assays (depositor defined):AID493012, AID493028]. It counts as functional.
DNA dC->dU-editing enzyme APOBEC-3G, sequence (Q9HC16 whole entry, the tested form may be a part): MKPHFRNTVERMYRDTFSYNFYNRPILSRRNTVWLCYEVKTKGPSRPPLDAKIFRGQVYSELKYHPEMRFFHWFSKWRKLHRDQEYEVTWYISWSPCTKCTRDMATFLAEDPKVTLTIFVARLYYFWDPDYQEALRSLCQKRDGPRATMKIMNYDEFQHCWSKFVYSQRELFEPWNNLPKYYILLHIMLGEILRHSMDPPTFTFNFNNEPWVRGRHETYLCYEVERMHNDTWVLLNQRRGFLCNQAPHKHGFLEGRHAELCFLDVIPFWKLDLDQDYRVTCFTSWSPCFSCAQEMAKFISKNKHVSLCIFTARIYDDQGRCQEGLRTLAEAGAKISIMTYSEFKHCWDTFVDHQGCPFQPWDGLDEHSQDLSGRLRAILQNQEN
Experiment [12] has as its target T6, Carboxy-terminal domain RNA polymerase II polypeptide A small phosphatase 1 (Homo sapiens, UniProt Q9GZU7).
T6 sequence (Q9GZU7 whole entry): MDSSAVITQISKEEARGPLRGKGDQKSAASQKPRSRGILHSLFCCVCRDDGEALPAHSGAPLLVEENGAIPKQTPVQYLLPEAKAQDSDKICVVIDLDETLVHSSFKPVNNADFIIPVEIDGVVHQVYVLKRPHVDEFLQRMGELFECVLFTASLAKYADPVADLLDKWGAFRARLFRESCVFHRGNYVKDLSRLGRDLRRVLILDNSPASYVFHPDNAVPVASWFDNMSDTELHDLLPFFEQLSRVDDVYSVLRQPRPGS
In words: inhibitors of CTDSP1, concentration-response testing, biochemical assay, absorbance-based, actives from ultra-high-throughput screening (AID 540297). Format: functional.

The target of experiment [13] is Beta-adrenergic receptor kinase 1 (Homo sapiens, UniProt P25098). In words: aptamer displacement from bead-bound GRK2 – biochemical, cherry pick 1, bead flow cytometry, dose response (AID 504500).
Beta-adrenergic receptor kinase 1, sequence (P25098 whole entry): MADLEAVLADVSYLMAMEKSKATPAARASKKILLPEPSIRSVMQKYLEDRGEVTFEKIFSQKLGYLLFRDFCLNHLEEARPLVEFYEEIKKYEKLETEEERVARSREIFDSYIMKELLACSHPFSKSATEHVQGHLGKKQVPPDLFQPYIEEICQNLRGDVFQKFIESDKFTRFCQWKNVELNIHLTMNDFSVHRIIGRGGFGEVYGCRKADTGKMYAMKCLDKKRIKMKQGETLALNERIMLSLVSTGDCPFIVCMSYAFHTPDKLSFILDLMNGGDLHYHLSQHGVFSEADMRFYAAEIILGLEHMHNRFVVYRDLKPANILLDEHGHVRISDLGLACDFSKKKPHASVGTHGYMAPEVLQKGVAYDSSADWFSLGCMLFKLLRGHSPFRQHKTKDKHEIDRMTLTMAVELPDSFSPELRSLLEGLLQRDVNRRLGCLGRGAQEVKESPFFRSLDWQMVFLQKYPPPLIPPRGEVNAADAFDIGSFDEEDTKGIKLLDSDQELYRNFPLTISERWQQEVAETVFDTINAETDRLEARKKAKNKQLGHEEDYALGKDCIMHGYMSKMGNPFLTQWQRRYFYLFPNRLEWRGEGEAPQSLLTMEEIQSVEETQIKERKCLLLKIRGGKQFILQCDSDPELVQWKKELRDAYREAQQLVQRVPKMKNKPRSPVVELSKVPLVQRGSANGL
For the next experiment, the target named is Phospholipase D2 (Homo sapiens, UniProt O14939). Kind of experiment: PLD2 inhibitor potency in cells, dose response (AID 602147).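 Note: cellular assay in HEK293 cells overexpressing GFP-tagged PLD2.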 Format: functional.
Phospholipase D2, sequence (O14939 whole entry): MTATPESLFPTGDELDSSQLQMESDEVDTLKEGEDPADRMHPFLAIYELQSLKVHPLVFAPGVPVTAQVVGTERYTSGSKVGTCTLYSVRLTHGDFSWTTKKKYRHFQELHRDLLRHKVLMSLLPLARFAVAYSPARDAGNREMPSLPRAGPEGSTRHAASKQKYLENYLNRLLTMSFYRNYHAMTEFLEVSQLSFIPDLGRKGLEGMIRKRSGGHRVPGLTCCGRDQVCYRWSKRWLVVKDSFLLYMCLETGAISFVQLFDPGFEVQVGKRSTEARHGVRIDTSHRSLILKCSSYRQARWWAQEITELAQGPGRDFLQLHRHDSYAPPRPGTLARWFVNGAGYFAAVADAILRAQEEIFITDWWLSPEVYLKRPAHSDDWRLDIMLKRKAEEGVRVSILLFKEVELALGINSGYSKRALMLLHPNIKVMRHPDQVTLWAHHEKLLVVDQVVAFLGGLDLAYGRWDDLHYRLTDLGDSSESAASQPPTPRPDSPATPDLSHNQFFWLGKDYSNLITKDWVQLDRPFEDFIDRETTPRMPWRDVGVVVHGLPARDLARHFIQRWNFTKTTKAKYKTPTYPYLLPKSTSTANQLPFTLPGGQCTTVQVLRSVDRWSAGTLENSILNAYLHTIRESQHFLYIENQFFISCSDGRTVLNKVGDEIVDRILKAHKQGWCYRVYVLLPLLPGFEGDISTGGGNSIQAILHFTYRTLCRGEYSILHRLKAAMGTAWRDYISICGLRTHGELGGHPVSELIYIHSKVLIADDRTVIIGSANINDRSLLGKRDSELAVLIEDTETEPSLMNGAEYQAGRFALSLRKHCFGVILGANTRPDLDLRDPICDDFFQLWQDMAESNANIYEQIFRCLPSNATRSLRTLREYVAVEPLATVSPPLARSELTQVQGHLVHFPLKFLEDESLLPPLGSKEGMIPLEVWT
The target in another experiment is Phospholipase D1 (Homo sapiens, UniProt Q13393). In words: PLD1 inhibitor potency in cells, dose response (AID 602151).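 Note: cellular PLD1 assay in Calu-1 cells stimulated with PMA.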 It counts as functional.
Phospholipase D1, sequence (Q13393 whole entry): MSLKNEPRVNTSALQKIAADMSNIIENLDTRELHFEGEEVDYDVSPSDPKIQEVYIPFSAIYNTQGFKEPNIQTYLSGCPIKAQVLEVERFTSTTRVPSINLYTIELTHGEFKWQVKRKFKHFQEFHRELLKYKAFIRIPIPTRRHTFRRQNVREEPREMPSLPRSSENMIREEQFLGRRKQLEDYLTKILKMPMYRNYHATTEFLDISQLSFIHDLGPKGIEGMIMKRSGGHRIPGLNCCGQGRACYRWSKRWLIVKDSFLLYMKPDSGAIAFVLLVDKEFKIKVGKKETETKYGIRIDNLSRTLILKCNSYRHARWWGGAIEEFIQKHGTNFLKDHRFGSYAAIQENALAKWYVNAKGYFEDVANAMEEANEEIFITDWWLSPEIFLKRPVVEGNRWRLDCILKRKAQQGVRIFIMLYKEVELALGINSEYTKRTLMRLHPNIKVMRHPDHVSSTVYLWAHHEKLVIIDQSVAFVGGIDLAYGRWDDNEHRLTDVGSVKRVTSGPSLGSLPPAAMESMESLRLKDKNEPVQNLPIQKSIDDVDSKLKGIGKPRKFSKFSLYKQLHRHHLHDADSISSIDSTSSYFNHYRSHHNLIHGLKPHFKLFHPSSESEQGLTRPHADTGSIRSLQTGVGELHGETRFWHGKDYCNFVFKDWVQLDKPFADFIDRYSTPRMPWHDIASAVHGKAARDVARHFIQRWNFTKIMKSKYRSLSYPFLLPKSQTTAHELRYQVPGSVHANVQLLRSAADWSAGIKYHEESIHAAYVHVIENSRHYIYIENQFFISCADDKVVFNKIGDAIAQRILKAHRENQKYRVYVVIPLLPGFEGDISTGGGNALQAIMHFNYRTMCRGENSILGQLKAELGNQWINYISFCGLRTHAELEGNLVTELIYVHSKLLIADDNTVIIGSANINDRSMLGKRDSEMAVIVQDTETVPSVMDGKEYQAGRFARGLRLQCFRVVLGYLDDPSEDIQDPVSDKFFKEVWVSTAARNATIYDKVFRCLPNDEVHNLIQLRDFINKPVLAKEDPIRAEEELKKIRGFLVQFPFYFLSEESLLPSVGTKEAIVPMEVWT
A further experiment has as its system HeLa. Kind of experiment: HeLa cell cytotoxicity, dose response, cytotoxicity control for MITF activator project, CellTiter-Glo luminescence, cherry-pick samples (AID 540259). Format: functional, cell-based. The conditions noted are these: Homo sapiens.

Activity calls are given as the source filed them. Bounds are passed on as bounds.

DNA dC->dU-editing enzyme APOBEC-3A, sequence (P31941 whole entry): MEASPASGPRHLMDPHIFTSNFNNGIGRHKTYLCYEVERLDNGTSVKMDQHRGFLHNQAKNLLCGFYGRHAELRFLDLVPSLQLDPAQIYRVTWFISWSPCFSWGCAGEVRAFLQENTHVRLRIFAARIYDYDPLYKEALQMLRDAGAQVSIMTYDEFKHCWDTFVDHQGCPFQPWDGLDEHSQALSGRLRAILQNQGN
Dual specificity protein kinase CLK1, sequence (P49759 whole entry): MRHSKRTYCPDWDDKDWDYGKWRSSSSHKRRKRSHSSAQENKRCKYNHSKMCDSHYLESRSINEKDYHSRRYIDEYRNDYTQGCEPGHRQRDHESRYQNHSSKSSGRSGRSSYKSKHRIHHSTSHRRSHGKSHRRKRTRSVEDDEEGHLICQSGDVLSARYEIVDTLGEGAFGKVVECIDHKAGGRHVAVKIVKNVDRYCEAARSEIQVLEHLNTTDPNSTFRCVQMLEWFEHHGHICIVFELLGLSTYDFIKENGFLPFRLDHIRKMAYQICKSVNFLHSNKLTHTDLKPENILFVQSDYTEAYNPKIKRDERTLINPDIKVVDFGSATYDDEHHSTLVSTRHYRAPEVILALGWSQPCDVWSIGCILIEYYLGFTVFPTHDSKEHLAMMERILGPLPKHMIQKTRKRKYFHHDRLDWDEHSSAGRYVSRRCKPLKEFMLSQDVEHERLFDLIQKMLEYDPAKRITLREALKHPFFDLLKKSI

Take `Fc1c(-c2ccc3ncnc(NCc4cccs4)c3c2)ccc2c1OCO2`: in experiment [1], the concentration at half-maximal activity (AC50) is 0.057 µM (active).
For `O=C(N/N=C/c1c[nH]c2ccccc12)c1[nH]c2ccc(Cl)cc2c1-c1ccccc1`, the IC50 (in [2]; in [3]; at Caspase-3; in experiment [4]) was > 99 µM (inactive) throughout.
Consider `CCOC(=O)c1nnn(-c2nonc2N)c1CSc1ccc(C)cc1`, for which the AC50 in experiment [5] was 1.19 µM (active); in experiment [6], 8.32 µM (active).
As for `O=C(c1ccc(Cl)cc1)N1CCN(c2ccc(C(F)(F)F)cn2)CC1`, the half-maximal activity concentration (AC50) in the experiment with Candida albicans [7] is 130 µM (active); in the experiment with Candida albicans [8] it was 0.259 µM (active).
As to `C=C(C)C(=O)Nc1cccc(C2=NOC3(C2)C[C@H](C(N)=O)N(C(=O)c2ccccc2)C3)c1` (some centres not stated), the IC50 is > 100 µM (inactive) in experiment [9], 14.3 µM (active) in experiment [11] and 3.85 µM (active) in [12]. The concentration giving a half-maximal response (EC50) was 17.1 µM (active) in experiment [10] and 12.5 µM (inactive) in experiment [13].
Regarding `C[C@H](CN1CCC2(CC1)C(=O)NCN2c1ccccc1)NC(=O)c1ccc(F)cc1`, the IC50 on Phospholipase D2 is 0.2 µM (active); at Phospholipase D1 it was 0.413 µM (active).
`CC1CCN(c2oc(-c3ccccc3Cl)nc2C#N)CC1`: the AC50 in the experiment on HeLa is 73 µM (active).

These data come from ChEMBL document CHEMBL1201862, “PubChem BioAssay data set” (2004).
